The source of these data is patent publication US10779531B2, “Insect repellent” (Kao Corporation, priority 2015, dated 2020).

Structures are written as SMILES.

For the first experiment, the system named is carbon dioxide-sensitive sensory hair of an Asian tiger mosquito. Put plainly: Evaluation of carbon dioxide response-inhibiting effect (nerve firing recording of sensory hair). The class given is in vivo. The conditions noted are these: Aedes albopictus, 1 s; fragrance 1% in paraffin oil, 15 μL on filter paper, olfactory stimulation 1 second; nerve firings relative to paraffin oil; N=1; read-out: Inhibition of carbon dioxide response (%). The protocol:
(§1) Asian tiger mosquitoes grown from eggs purchased from Sumika Technoservice Corporation were used. A transparent plastic pan was filled with water to a depth of approximately 1 cm, and a filter paper on which the eggs had been deposited was put therein. The larvae were fed with tropical fish feed (TetraMin) every day. After approximately 1 week, the pupae were collected with a dropper, and transferred into a 20 mL plastic cup, and the cup was placed in a netted cage. The adults were fed with 10 mass % sucrose contained in a 25 mL plastic tube. The males and females were kept together in one cage and allowed to mate for 5 days after eclosion. After 5 days of captivity, the adults were collected with an insect aspirator and anesthetized on ice for 5 minutes, and visually sorted into males and females to collect only the females. The wings and legs were removed from each female mosquito under anesthesia, and the female mosquito was pushed onto a double-sided adhesive tape pasted on a microscope slide with the back on the tape and thus fixed thereto, and the antennae and maxillary palpi were positioned, so as to achieve the accessibility of electrodes.
A 1 mol/L aqueous solution of potassium hydroxide was injected into a 50 mL syringe, and the syringe was horizontally fixed to a magnet stand with a clamp. A tungsten wire fixed to an electrode holder was horizontally inserted into the syringe, and polished by electrolysis under microscopic observation. A current was supplied from an AC power source to the syringe through the electrode holder via crocodile clips.
The Asian tiger mosquito prepared on a microscope slide was set under a microscope, and positioned so that the antennae were at the center of the view through a ×10 objective lens. A reference electrode was inserted in the eye of the insect. A pipette for providing an olfactory stimulus was placed near the maxillary palpi, and the objective lens was replaced with a ×100 objective lens. The recording electrode was brought close to the sensory hair, and carefully inserted into the sensory hair with a micromanipulator. The peg-like shape of the carbon dioxide-sensitive sensory hair of an Asian tiger mosquito can be confirmed under microscopic observation. After insertion of the electrode into the sensory hair, the spontaneous nerve firing pattern was investigated. Carbon dioxide the concentration of which had been adjusted to 0.1% was led to an olfactory stimulation apparatus via a silicone tube to stimulate the maxillary palpi for 1 second, and the carbon dioxide response was investigated.
The concentration of each of the fragrances listed in Table 4 was adjusted to 1% with paraffin oil, and the resultant was used as a sample. On a filter paper (3 mm×50 mm) 15 μL of the sample was dropped, and the filter paper was inserted in a Pasteur pipette. The Pasteur pipette was connected to a stimulation apparatus via a plastic tube, and olfactory stimulation was performed for 1 second while the response to carbon dioxide in the air was monitored, and thus the carbon dioxide response-inhibiting effect was evaluated. The number of nerve firings in 1 second after stimulation with paraffin oil as a solvent and the number of nerve firings in 1 second after stimulation with each sample were counted, and the ratio was used for evaluation of the response-inhibiting effect (N=1). Inhibitory rate (%)=100×([number of firings after stimulation with paraffin oil−number of firings after stimulation with sample]/[[number of firings after stimulation with paraffin oil]) (Equation 2)
Consider `C=CC(O)CCCCC` (centres unmarked) [1-Octen-3-ol, 1-octen-3-ol], for which the pest or weed control at 1 % is 55%.
The same measure, in the same setting: in the case of `CC1=CC(C)C(CO)C(C)C1` (centres unmarked) [2,4,6-Trimethyl-3-cyclohexene-1-methanol, 2,4,6-trimethyl-3-cyclohexene-1-methanol] it was 61%; in that of `CC1=CC(C)C(CO)CC1` (centres unmarked) [2,4-Dimethylcyclohex-3-ene-1-methanol, 2,4-dimethylcyclohex-3-ene-1-methanol], 67%; in that of `CC(=O)OC1CCCCC1C(C)(C)C` (centres unmarked) [o-tert-Butylcyclohexyl acetate, o-tert-butylcyclohexyl acetate], 87%.
For `CCCCCC1=C(C)CCC1=O` [3-Methyl-2-pentylcyclopent-2-en-1-one, 3-methyl-2-pentylcyclopent-2-en-1-one], the pest or weed control at 1 % was 68%.
`CCCCCCCCCCO` [1-Decanol, 1-decanol]: the pest or weed control at 1 % worked out at 54%.
Same read-out and setting: in the case of `CCC/C=C/COC(C)=O` [trans-2-Hexenyl acetate, trans-2-hexenyl acetate] it was 48%; in that of `CCCCC(CC)C(=O)OCC` (centres unmarked) [Ethyl 2-ethylhexanoate, ethyl 2-ethylhexanoate], 51%.
On the same count and under the same terms, for `CCCCCCCCO` [1-Octanol, 1-octanol] the value was 97%; for `CCCc1ccc(O)c(OC)c1` [2-Methoxy-4-propylphenol, 2-methoxy-4-propylphenol], 95%.
`CCC(=O)OCc1ccccc1` [Benzyl propionate, benzyl propionate]: the pest or weed control at 1 % was found to be 97%.
Same read-out and setting: in the case of `CCOC(=O)C(C)C1CCCCC1` (centres unmarked) [Ethyl 2-cyclohexylpropionate, ethyl 2-cyclohexylpropionate] it was 48%.
Same read-out and setting: for `CC/C=C\CCOC(C)=O` [cis-3-Hexenyl acetate, cis-3-hexenyl acetate] the value was 50%; for `CCOC(=O)Cc1ccccc1` [Ethyl phenylacetate, ethyl phenylacetate], 79%.
The same measure, in the same setting: for `Cc1csc(C(C)C)n1` [2-Isopropyl-4-methylthiazol, 2-isopropyl-4-methylthiazol] the value was 71%.
As to `C=CCCCCCCCCO` [9-Decen-1-ol, 9-decen-1-ol], the pest or weed control at 1 % amounted to 56%.

Still in this experiment, the particulars now being: fragrance 1% in paraffin oil, 15 μL on filter paper, olfactory stimulation 1 second; nerve firings relative to paraffin oil; N=1.
As to `CC1=CC(C)C(C=O)C(C)C1` (centres unmarked) [Isocyclocitral, isocyclocitral], the “Inhibition of carbon dioxide response (%)” value was 61%.

A further experiment deals with female Asian tiger mosquitoes. As to the kind of experiment: Evaluation of inhibitory effect on seeking behavior for heat source (thermoreception-inhibiting effect). The class given is in vivo, Asian tiger mosquito. The conditions noted are these: Aedes albopictus, 0.5 min; fragrance 0.1% in ethanol, 50 μL on sheet on plate heater; landings counted after 30 seconds of contact; relative to ethanol only; read-out: Inhibitory rate for seeking for heat source (%). The protocol:
(1) Preparation of Asian Tiger Mosquitoes
as §1, with “10% by” for “10”, “mass” for “mass %”, “females.” for “females. The wings and legs were removed from each female mosquito under anesthesia, and the female mosquito was pushed onto a double-sided adhesive tape pasted on a microscope slide with the back on the tape and thus fixed thereto, and the antennae and maxillary palpi were positioned, so as to achieve the accessibility of electrodes.”
(2) Evaluation of Inhibitory Effect on Seeking Behavior for Heat Source
Approximately 150 to 200 female Asian tiger mosquitoes were transferred in a plastic cage (30×30×30 cm). To monitor the behavior of the female mosquitoes from the top of the plastic cage, the top surface of the cage was replaced with an acrylic plate. A plate heater (multi-panel heater 16 W for small animals, manufactured by Vivaria) as a heat source was provided at a corner of the cage from the outside of the mesh with an area of 5×3 cm exposed. To take a photograph of the heat source from the top surface in experiment, a video camera (manufactured by Sony Corporation) was disposed above the top surface. A sheet for application of a sample was fixed to the heat source with a double-sided adhesive tape.
The concentration of a fragrance listed in Table 1 was adjusted to 0.1% with ethanol to prepare a sample, and 50 μL of the sample or ethanol as a solvent was administered in experiment. To activate the female mosquitoes, 1% of carbon dioxide was administered from the top for 1 second, and then the heat source was brought into contact with the cage. After 30 seconds of contact, a photograph of the heat source was taken to count the number of mosquitoes attracted. The sheet used for the heat source was discarded and replaced with another sheet every time the assay was completed. In view of the influence of a sample on the mosquitoes, the number of evaluations performed for one cage was limited to (7 samples+1 control) at a maximum. The inhibitory rate relative to the number of landings with application of ethanol solvent only was calculated for one set of assays (7 samples+1 control) to determine the inhibitory effect by using the following equation. Inhibitory rate (%)=100×(1−[number of landings with application of sample]/[number of landings with application of ethanol]) (Equation 1)
On to `O=C1CCC2CCCCC2O1` (centres unmarked) [Octahydro-2H-1-benzopyran-2-one, octahydro-2H-1-benzopyran-2-one], for which the pest or weed control at 0.1 % is 93.3%.
Turning to `CC1CC2C3CCC(C3)C2CC1=O` (centres unmarked) [octahydro-7-methyl-1,4-methanonaphthalen-6(2H)-one], the pest or weed control at 0.1 % came to 81.3%.
The same measure, in the same setting: for `CC1=C(C=O)C(C)(C)CC=C1` [2,6,6-trimethylcyclohexa-1,3-diene-1-carbaldehyde] the value was 91.7%; for `Cc1ccc2ncccc2c1` [6-Methylquinoline, 6-methylquinoline], 64.7%; for `COC1CC2CC1C1CC(C=O)CC21` (centres unmarked) [octahydro-5-methoxy-4,7-methano-1H-indene-2-carboxaldehyde], 89.2%.
On to `COC(OC)C(C)c1ccccc1` (centres unmarked) [2-Phenylpropionaldehyde dimethyl acetal, 2-phenylpropionaldehyde dimethyl acetal], for which the pest or weed control at 0.1 % was 66.8%.
Turning to `Cc1ncsc1CCO` [4-Methyl-5-thiazoleethanol, 4-methyl-5-thiazoleethanol], the pest or weed control at 0.1 % worked out at 74.5%.
Take `COC(C)(C)CCCC(C)CC=O` (centres unmarked) [7-Methoxy-3,7-dimethyloctanal, 7-methoxy-3,7-dimethyloctanal]: the pest or weed control at 0.1 % is 72.4%.
On the same count and under the same terms, for `CCC(C)(O)CCc1ccccc1` (centres unmarked) [3-Methyl-1-phenyl-3-pentanol, 3-methyl-1-phenyl-3-pentanol] the value was 69.3%.
Same read-out and setting: for `CC1C(=O)c2ccccc2C1(C)C` (centres unmarked) [2,3,3-Trimethyl-2H-inden-1-one, 2,3,3-trimethyl-2H-inden-1-one] the value was 76.2%; for `CCCC1CC(=O)C=C(C)C1` (centres unmarked) [3-Methyl-5-propyl-2-cyclohexen-1-one, 3-methyl-5-propyl-2-cyclohexen-1-one], 97.2%; for `CC=C1CC2CC1C1CCC(=O)OC21` (centres unmarked) [9-ethylidene-3-oxatricyclo(6.2.1.0^2,7)undecan-4-one], 85.9%.
Same read-out and setting: in the case of `O=CCOc1ccccc1` [Phenoxyacetaldehyde, phenoxyacetaldehyde] it was 89%.

The same experiment, now with this note: fragrance 0.1% in ethanol, 50 μL on sheet on plate heater; landings counted after 30 seconds of contact; relative to ethanol only.
Turning to `CCCCC1CCC(=O)O1` (centres unmarked) [γ-Octalactone, γ-octalactone], the “Inhibitory rate for seeking for heat source (%)” value was found to be 87.4%.

In a further experiment the test system is Adult Asian tiger mosquitoes. Put plainly: Evaluation of inhibition of seeking behavior for human arm (landings on gloved hand). The class given is in vivo, Asian tiger mosquito. The note with it: sample 0.4% in ethanol on cotton-gloved hand; relative to number of landings with control sample (ethanol) as 100%. The source says: Adult Asian tiger mosquitoes consisting of 220 females and 80 males each at 5 to 10 day old were purchased from Sumika Technoservice Corporation, and released in a 30 cm×30 cm×30 cm plastic cage (bug dorm).
The concentration of each of 2,4-dimethylcyclohex-3-ene-1-methanol (“floralol”, IFF Inc.) and octahydro-7-methyl-1,4-methanonaphthalen-6(2H)-one (“PLICATONE”, Firmenich SA) as evaluation samples was adjusted to 0.4% with ethanol. A sample containing only ethanol was used as a control.
Each of the evaluation samples and control sample was sprayed 14 times in total (0.6 g) to both sides of a hand wearing a 100% cotton glove doubly.
After application of the sample, the gloved hand was left to stand for 1 minute to volatilize ethanol, and the gloved hand with the sample applied thereto was then put in the plastic cage, and the number of mosquitoes which landed on the glove was counted every 1 minute.
The numbers of landings after 1 minute, 2 minutes, and 3 minutes, and the sum total of them were counted, and the landing rate relative to the number of landings with application of the control sample as 100% was calculated. This experiment was repeated three times.
As to `CC1CC2C3CCC(C3)C2CC1=O` (centres unmarked) [octahydro-7-methyl-1,4-methanonaphthalen-6(2H)-one], the “Total landing rate (%)” value was 53.3%.
For `CC1=CC(C)C(CO)CC1` (centres unmarked) [2,4-Dimethylcyclohex-3-ene-1-methanol, 2,4-dimethylcyclohex-3-ene-1-methanol], the “Total landing rate (%)” value came to 71.1%.

The experiment is the same for the next values; noted with them: sample 0.4% in ethanol on cotton-gloved hand; sum total of 1, 2 and 3 minutes.
Turning to `CC1CC2C3CCC(C3)C2CC1=O` (centres unmarked) [octahydro-7-methyl-1,4-methanonaphthalen-6(2H)-one], the “Number of landings total” value came out at 12.
Same read-out and setting: in the case of `CC1=CC(C)C(CO)CC1` (centres unmarked) [2,4-Dimethylcyclohex-3-ene-1-methanol, 2,4-dimethylcyclohex-3-ene-1-methanol] it was 16.

Staying with this experiment, now noted: sample 0.4% in ethanol, sprayed 14 times (0.6 g) on cotton-gloved hand; after 1 minute.
Turning to `CC1CC2C3CCC(C3)C2CC1=O` (centres unmarked) [octahydro-7-methyl-1,4-methanonaphthalen-6(2H)-one], the “Number of landings 1 min” value was determined as 2.
For `CC1=CC(C)C(CO)CC1` (centres unmarked) [2,4-Dimethylcyclohex-3-ene-1-methanol, 2,4-dimethylcyclohex-3-ene-1-methanol], the “Number of landings 1 min” value is listed as 3.

Still in this experiment, the particulars now being: sample 0.4% in ethanol, sprayed 14 times (0.6 g) on cotton-gloved hand; after 2 minutes.
For the compound `CC1CC2C3CCC(C3)C2CC1=O` (centres unmarked) [octahydro-7-methyl-1,4-methanonaphthalen-6(2H)-one], the “Number of landings 2 min” value turned out to be 4.
`CC1=CC(C)C(CO)CC1` (centres unmarked) [2,4-Dimethylcyclohex-3-ene-1-methanol, 2,4-dimethylcyclohex-3-ene-1-methanol]: the “Number of landings 2 min” value is reported as 6.

The experiment is the same for the next values; noted with them: sample 0.4% in ethanol, sprayed 14 times (0.6 g) on cotton-gloved hand; after 3 minutes.
Turning to `CC1CC2C3CCC(C3)C2CC1=O` (centres unmarked) [octahydro-7-methyl-1,4-methanonaphthalen-6(2H)-one], the “Number of landings 3 min” value worked out at 6.
On to `CC1=CC(C)C(CO)CC1` (centres unmarked) [2,4-Dimethylcyclohex-3-ene-1-methanol, 2,4-dimethylcyclohex-3-ene-1-methanol], for which the “Number of landings 3 min” value stood at 7.
